Experiments:
mice [1] = test: locomotor activity (ultromotivity) test, evaluation of sedative action; type: in vivo, Male ICR mice
Protocol: (§1) In the following Examples, all extracts and drugs used were dissolved in physiological saline before use for i.p. administration and the dose was 0.1 ml of physiological saline per 10 g of mouse body weight in either case. All extracts and drugs were suspended in physiological saline containing 1% sodium carboxymethylcellulose before use for oral administration and the dose was 0.1 ml of 1% sodium carboxymethylcellulose-containing physiological saline suspension per 10 g of mouse body weight in either case. Male ICR mice (Japan SLC) having a body weight of 25 to 30 g were used in the tests below unless otherwise stated, and were fed in advance at a room temperature of 23±1° C. and a relative humidity of 55±5% in the environment of a cycle of 12-hour-light from 7 a.m. to 7 p.m. and 12-hour-dark from 7 p.m. to 7 a.m. for 3 to 5 days. The mice were allowed to have water and feed freely.
Twenty five mice were grouped into five groups each having five mice, to which 5 mg/kg of N-methylcoclaurine hydrochloride (treatment group 1-1: i.p. administration), 50 mg/kg of neferine hydrochloride (treatment group 1-2: oral administration, and treatment group 1-3: i.p. administration), 50 mg/kg of liensinine hydrochloride (treatment group 1-4: oral administration), or physiological saline (negative control group 1-1: i.p. administration) was administered. The ultromotivity of the mice was analyzed by using a locomotor activity monitoring system (NS-AS01, Neuroscience Inc.). The ultromotivity measurements were performed at an interval of 5 minutes for 60 minutes, and the ultromotivity was judged from the count at each measuring time.
Similar tests were conducted by i.p. administration of 25 mg/kg of N-norarmepavine (treatment group 1-5, n=6), 25 mg/kg of O,O-dimethylcoclaurine (treatment group 1-6, n=5), 10 mg and 25 mg/kg of armepavine (respectively, treatment group 1-7, n=6, and treatment group 1-8, n=6), 10 mg and 25 mg/kg of O-methylarmepavine (respectively, treatment group 1-9, n=6, and treatment group 1-10, n=6), and physiological saline (negative control group 1-2, n=5). The ultromotivity measurements were performed at an interval of five minutes for 60 minutes, and the ultromotivity was subjected to a significant difference test (Tukey's method) by using the counts at respective measuring times.
Tests were performed by using mice administered intraperitoneally with 25 mg/kg of neferine hydrochloride (treatment group 7-1, n=6), 25 mg/kg of liensinine hydrochloride (treatment group 7-2, n=6), and physiological saline (negative control group, n=6) as well as 5 mg/kg of diazepam (positive control group, n=6) and a rotarod equipment (Ugo Basile, Italy) and a locomotor activity monitoring system (NS-AS01, Neuroscience Inc.). The rotarod test was performed by placing a mouse on a rod having a diameter of 4 cm rotating at a speed of 8 rpm 15 minutes after drug administration and observing whether the mouse can stay on the rod without falling for three minutes. The individuals that had fallen from the rotating rod in the period of 3 minutes were judged that they are with motor coordination disorder. […] In addition, the ultromotivity measurements were performed at an interval of five minutes for 60 minutes, and the ultromotivity results were subjected to a significant difference test (Tukey's method) by using the counts at respective measuring times.

mice [2] = test: suppression of the enhancement of ultromotivity by methamphetamine; type: in vivo, Male ICR mice; conditions: methamphetamine 1 mg/kg 15 minutes later, 60 minutes
Protocol: as §1, with “The mice were allowed to have water and feed freely.” left out
Fifteen mice were grouped into three groups of five mice, to which 50 mg/kg of neferine hydrochloride (treatment group 3-1), 100 mg/kg of the same (treatment group 3-2), and only physiological saline (negative control group) were administered respectively intraperitoneally. […] After administration of methamphetamine, each of the mice was placed in a transparent polycarbonate cage (22.5 cm×33.8 cm×14.0 cm), where the ultromotivity of the mouse was analyzed for 60 minutes by using a locomotor activity analyzer (NS-AS01, Neuroscience Inc.).

mice [3] = test: forced swimming test (antidepressive action); type: in vivo, Male ICR mice; conditions: 100 mg/kg i.p., 6-minute period
Protocol: as §1
Forced swimming tests were conducted according to the method of Porsolt et al. A mouse was placed in a cylindrical glass water tank of 10 cm in diameter and 25 cm in height (water temperature: 23° C.) filled with water to a depth of 10 cm and forced to swim therein. […] Each mouse was forced to swim 15 and 30 minutes after administration, and the immobile times during the 6-minute periods immediately after forced swimming were determined. […]

mice [4] = test: tail flick test; type: in vivo, Male ICR mice; conditions: 15 minutes after administration, cut off time 10 seconds
Protocol: as §1, with “The mice were allowed to have water and feed freely.” left out
A tail flick test is a method in which, when radiant heat stimulation is locally added to a part of a tail 1 to 2 cm away from the tail root part of a mouse, a reaction of raising a tail as a provisional pain reaction is manifested, and anti-invasion action is determined by utilizing this reaction.
Seven to nine mice per group were used. […] The reaction that a mouse raised a tail upon addition of radiant heat was regarded as a provisional pain reaction, and a time until its manifestation (latency time) was measured. […]

[5] = Seibu et al., Journal of Natural Products 49 (1986); no specific data; cited from earlier work
mice [6] = conditions: Ito et al., abstract of the Japanese Society of Pharmacognosy; cited from earlier work

SMILES: COc1ccc(C[C@@H]2c3cc(Oc4cc(C[C@@H]5c6cc(OC)c(OC)cc6CCN5C)ccc4O)c(OC)cc3CCN2C)cc1 [neferine]
- Significant difference test of ultromotivity (mice [1]; 25 mg/kg i.p., Tukey's method, 60 minutes): P < 0.01
- Ultromotivity (count) 30 minutes (mice [1]; 50 mg/kg i.p.): 500 count
- Ultromotivity (count) 60 minutes (mice [1]; 50 mg/kg i.p., 60 minutes): 760 count
- Ultromotivity (count) 30 minutes (mice [1]; 50 mg/kg oral): 500 count
- Ultromotivity (count) 60 minutes (mice [1]; 50 mg/kg oral, 60 minutes): 750 count
- Ultromotivity (count) (mice [2]; 50 mg/kg i.p.): 2600 count
- Ultromotivity (count) (mice [2]; 100 mg/kg i.p.): 1800 count
- Immobile time (sec) After 15 minutes (mice [3]; 15 minutes after administration): 165 s
- Immobile time (sec) After 30 minutes (mice [3]; 30 minutes after administration): 170 s
- % MPE (mice [4]; 50 mg/kg i.p.): 5.0 ± 2.30%
- % MPE (mice [4]; 100 mg/kg i.p.): 15.6 ± 2.89 %
- antihypertensive action [5]: exhibited an antihypertensive action
- locomotor activity-inhibiting action (mice [6]): exhibited a locomotor activity-inhibiting action

Reference: patent US20070027181A1, “Benzylisoquinoline derivative- or bisbenzylisoquinoline derivative-containing psychotropic agent, analgesic and/or antiphlogistic, and health food” (EDUCATION CENTER OF TRADITIONAL, priority 2004, published 2007)
